The conditions of series [1]: cited from earlier work.
Series [2] is described as follows: Physical and chemical stability on storage, analysed by PXRD for polymorph integrity. The format is physicochemical. The procedure: The Cu-anode X-ray tube was operated at 40 kV and 30 mA. The experiments were conducted over the 2θ range of 2.0°-50.0°, 0.030° step size and 0.4 seconds step time.
The Cu-anode X-ray tube was operated at 40 kV and 30 mA. The experiments were conducted over the […] of 2.0°-50.0°, 0.030° step size and 0.4 seconds step time.
As used herein, a compound or pharmaceutical composition is considered “stable” where the HPLC purity of the compound or premix changes by less than about 1% when stored at 5° C.±3° C. and/or at 25° C./60% relative humidity (RH). In certain embodiments, the “stable” compound or premix is stored at 5° C.±3° C. In other embodiments, the “stable” compound or premix is stored at 25° C./60% relative humidity (RH).

Each structure is given as a SMILES string.

Consider `CC[C@H](Nc1ncnc2[nH]cnc12)c1nc2cccc(F)c2c(=O)n1-c1ccccc1` [Idelalisib, 5-fluoro-3-phenyl-2-[(1S)-1-(7H-purin-6-ylamino)propyl]-4(3H)-quinazolinone], for which, in series [1], the Solubility in water entry is on record as “poorly soluble”.

As to `CC[C@H](Nc1ncnc2nc[nH]c12)c1nc2cccc(F)c2c(=O)n1-c1ccccc1` [Amorphous Idelalisib, 5-fluoro-3-phenyl-2-[(1S)-1-(7H-purin-6-ylamino)propyl]-4(3H)-quinazolinone], the “Initial PXRD analysis” value in series [2] (at 5° C. ± 3° C.), in series [2] (at 25° C./60% RH) and in series [2] (at 40° C./75% RH) was “Amorphous” each time.

Source of the values: patent US20180064714A1 (Mylan Laboratories Ltd, priority 2015, published 2018).
